Reference: PubChem BioAssay AID977628 (Broad Institute, 2014)
Records with an inconclusive call do not appear. The source made the active and inactive calls.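 The calls were made as follows: active = compound lowering the normal-ribosome reporter at least twice as much as the humanized-ribosome reporter, growth loss under a set limit; inconclusive = no clear call, values can overlap the other calls; inactive = the rest.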

Assays:
[1] = tested on: E. coli WT GFP strain growth, fluorescence, 24 h; assay: E. coli growth inhibition, wild-type GFP versus h24 humanized RFP strain, dose response, h24 mutant RFP vs wild-type GFP, cherry-pick (AID 977628)
[2] = tested on: E. coli mixed WT/h24 culture total growth, OD600, 24 h; assay: as above

Compound	AC50 [1]	AC50 [2]
COc1ccc(S(=O)(=O)Cc2ccc(C(=O)N3CCN(c4cc(Cl)ccc4C)CC3)o2)cc1	> 100 µM (inactive)	49.9 µM
Cc1ccc2nc(N(CCN(C)C)C(=O)C3CCN(S(=O)(=O)c4cccs4)CC3)sc2c1	> 100 µM (inactive)	> 100 µM
Fc1ccc(-n2cc(CNCCc3cccnc3)c(-c3ccccc3Cl)n2)cc1	> 100 µM (inactive)	49.2 µM
CCOc1cccc2sc(NC(=O)CC)nc12	> 100 µM (inactive)	> 100 µM
CC(C)(C)C1CCC(OCC(O)CN2CCN(c3ccccn3)CC2)CC1 (configuration not stated)	> 100 µM (inactive)	41 µM
CCN(c1ccccc1)S(=O)(=O)c1ccc(OC)c(OC)c1	> 100 µM (inactive)	> 100 µM
COc1ccc(OC)c(-c2nnc3n2N=C(c2ccc(OC)c(OC4CCOC4)c2)CS3)c1 (configuration not stated)	> 100 µM (inactive)	> 100 µM
CCOC(=O)c1c(C)nsc1NCc1ccccc1	> 100 µM (inactive)	30.9 µM
O=c1c2ccccc2cnn1Cc1n[nH]c(=S)n1C1CC2CCC1C2 (configuration not stated)	> 100 µM (inactive)	> 100 µM
Cc1ccc(N(CC(O)Cn2nc(C)cc2C)S(=O)(=O)c2ccc3ccccc3c2)cc1 (configuration not stated)	> 100 µM (inactive)	49.4 µM
COc1ccc(NC(=O)CCS(=O)(=O)c2ccccc2Cl)cc1S(=O)(=O)Nc1ccc(Cl)cc1	> 100 µM (inactive)	> 100 µM
CCN(CC(=O)Nc1ccccc1OC)CC(=O)Nc1c(Cl)ccc(C)c1Cl	> 100 µM (inactive)	> 100 µM
Nc1[nH]c(C(=O)c2ccccc2)c(-c2ccc(Cl)cc2)c1C(=O)NCCc1c[nH]c2ccccc12	> 100 µM (inactive)	> 100 µM
O=C(Nc1ccc2nc3n(c(=O)c2c1)CCCCC3)c1c(F)ccc([N+](=O)[O-])c1F	> 100 µM (inactive)	> 100 µM
COc1cccc(OCCNS(=O)(=O)c2ccccc2[N+](=O)[O-])c1	> 100 µM (inactive)	> 100 µM
Cc1c(C(=O)N(Cc2ccc(F)cc2)C2CCS(=O)(=O)C2)oc2ccccc12 (configuration not stated)	> 100 µM (inactive)	> 100 µM
CN(C)C(=O)C1C2NC(=S)N(c3cccc(Cl)c3)C1(C)Oc1ccc(Cl)cc12 (configuration not stated)	> 100 µM (inactive)	> 100 µM
Cc1cc(C(N)=O)nn1-c1c(Cl)cc(Cl)cc1Cl	> 100 µM (inactive)	> 100 µM
C(=C(c1ccccc1)c1ccccc1)c1ccccn1	> 100 µM (inactive)	> 100 µM
CCn1c(CNC(=O)c2ccccc2F)cc2cc(C)ccc21	> 100 µM (inactive)	> 100 µM
O=C(NCC(c1ccc(F)cc1)N1CCOCC1)c1ccc([N+](=O)[O-])o1 (configuration not stated)	> 100 µM (inactive)	> 100 µM
O=C(Nc1cccc(Cl)c1)N1C[C@@H]2[C@H](c3ccccc31)[C@@H](CO)N2CC1CCCCC1	> 100 µM (inactive)	41.9 µM
COc1ccc(C(=O)Nc2ccc3oc(Cc4ccc(Cl)cc4)nc3c2)cc1OC	> 100 µM (inactive)	> 100 µM
Cc1nnn(C23CC4CC(CC(CC(=O)Nc5ccc(C)c(C)c5)(C4)C2)C3)n1	> 100 µM (inactive)	> 100 µM
CC(=O)Nc1ccc(S(=O)(=O)Nc2cccc(-c3nc4cc(C)ccc4o3)c2)cc1	> 100 µM (inactive)	> 100 µM
COc1ccc(-c2nnn(CC(=O)N3CCN(c4ccccc4OC)CC3)n2)cc1OC	> 100 µM (inactive)	> 100 µM

Compound	AC50 [1]	AC50 [2]
CCOC(=O)c1ccc(CC(=O)c2oc3cc(O)ccc3c2C)o1	> 100 µM (inactive)	> 100 µM
CCN(CC)S(=O)(=O)c1ccc(O)c(C(=O)OCC(=O)NC23CC4CC(CC(C4)C2)C3)c1	> 100 µM (inactive)	> 100 µM
Cc1cccc(C)c1-n1nnnc1C1(C)CCC(=O)N1Cc1cccs1 (configuration not stated)	> 100 µM (inactive)	> 100 µM
O=C(Cn1cc(COc2c(F)c(F)cc(F)c2F)nn1)c1ccc(O)cc1	> 100 µM (inactive)	> 100 µM
COc1ccc(C2=Nc3ccccc3NC(=O)C2N(C(=O)c2ccnc3ccccc23)c2ccccc2)cc1 (configuration not stated)	> 100 µM (inactive)	43 µM
CCOc1ccc(NC(=O)CCc2nnc3ccc(N4CCC(C)CC4)nn23)cc1	> 100 µM (inactive)	> 100 µM
CC(C)Oc1cccc(C(=O)C2CCCN(Cc3ccc4nonc4c3)C2)c1 (configuration not stated)	> 100 µM (inactive)	36.8 µM
O=C(CSCc1c(Cl)cccc1Cl)Nc1cccnc1	> 100 µM (inactive)	> 100 µM
COc1ccc(OC)c(C(=O)COC(=O)c2ccc([N+](=O)[O-])o2)c1	> 100 µM (inactive)	> 100 µM
O=C(Nc1ccc2c(c1)OCO2)c1cccc(S(=O)(=O)N2CCCC2)c1	> 100 µM (inactive)	> 100 µM
Cc1cc(C(=O)COC(=O)c2ccc(Br)o2)c(C)n1C	> 100 µM (inactive)	42.5 µM
Cc1ccc(NC(=O)c2cccs2)cc1[N+](=O)[O-]	> 100 µM (inactive)	> 100 µM
Cc1ccc(Oc2ccc(S(=O)(=O)N3CCOCC3)cc2C(N)=O)cc1C	> 100 µM (inactive)	> 100 µM
CCOc1ccc(S(=O)(=O)Nc2ccc(S(=O)(=O)N3CCCC3)cc2)cc1	> 100 µM (inactive)	40.8 µM
CCn1c(-c2ccccc2Cl)nn(CC(=O)Nc2ccccc2OC)c1=S	> 100 µM (inactive)	> 100 µM
CCc1ccc(NC(=O)COC(=O)CCCC2=NS(=O)(=O)c3ccccc3N2)cc1	> 100 µM (inactive)	> 100 µM
COc1cc(OC)cc(C(=O)Nc2ccc(S(=O)(=O)Nc3cnc4ccccc4n3)cc2)c1	> 100 µM (inactive)	42.2 µM
CN(CCOc1ccccc1)C(=O)c1ccc(OC2CCN(C(=O)C3CC3)CC2)cc1	> 100 µM (inactive)	> 100 µM
Cn1cnc(CCNC(=O)C[C@H]2CC[C@@H]3[C@H](COC[C@H](O)CN3C(=O)Nc3ccc(Cl)cc3)O2)c1	> 100 µM (inactive)	> 100 µM
CC(C)(C)c1ccc2c(c1)C(c1ccc3c(c1)OCO3)CC(=O)O2 (configuration not stated)	> 100 µM (inactive)	> 100 µM
Cc1c(C(=O)O)oc2ccc(S(=O)(=O)NC3CCCCCCC3)cc12	> 100 µM (inactive)	41.4 µM
O=S(=O)(Nc1ccc(-c2cnco2)cc1)c1ccccc1	> 100 µM (inactive)	> 100 µM
CCOc1ccc2oc(C(=O)NC3CCN(Cc4ccccc4)CC3)c(C)c2c1	> 100 µM (inactive)	> 100 µM
O=C(COn1nnc2ccc(C(F)(F)F)cc21)Nc1c(Cl)cccc1Cl	> 100 µM (inactive)	> 100 µM
CCOc1cccc2sc(N(CCCN(C)C)C(=O)c3ccc(S(=O)(=O)N4CCCCCC4)cc3)nc12	> 100 µM (inactive)	> 100 µM
Cc1cc(NC(=O)CS(=O)(=O)c2cn(Cc3cccc(Br)c3)c3ccccc23)no1	> 100 µM (inactive)	40 µM

Compound	AC50 [1]	AC50 [2]
O=C(Cn1c(CO)nc2ccccc21)NCCc1ccc(F)cc1	> 100 µM (inactive)	> 100 µM
Cc1nc2ccc(Br)cc2c(=O)n1Cc1cccs1	> 100 µM (inactive)	49.7 µM
COc1ccc(C(=O)Nc2ccc3nc(C)sc3c2)cc1OC	> 100 µM (inactive)	> 100 µM
Cc1ccc(NC(=O)CN(C)S(=O)(=O)c2cccc3cccnc23)cc1F	> 100 µM (inactive)	> 100 µM
C=CCn1c(-c2cc3cccc(OC)c3o2)n[nH]c1=S	> 100 µM (inactive)	> 100 µM
COc1ccc(-c2ccccc2)cc1NC(=O)c1ccncc1	> 100 µM (inactive)	> 100 µM
CC(=O)Nc1ccc(-c2ccnc3c2CC(C)(C(=O)Nc2ccc4c(c2)OCO4)O3)cc1 (configuration not stated)	> 100 µM (inactive)	> 100 µM
NS(=O)(=O)c1cccc(NC(=O)CSc2nc3ccccc3n2-c2ccccc2)c1	> 100 µM (inactive)	38.1 µM
CCCn1c(=O)c2ccccc2n2c(SCCOc3ccc(OC)cc3)nnc12	> 100 µM (inactive)	> 100 µM
Cc1cccc(Nc2nc(-c3ccc(F)cc3)cs2)n1	> 100 µM (inactive)	> 100 µM
CCOC(=O)c1nc(C)sc1-c1ccnn1S(=O)(=O)c1cccc(Cl)c1	> 100 µM (inactive)	41.7 µM
COc1cc2c(cc1OC)CN(c1ccc([N+](=O)[O-])c(C(F)(F)F)c1)CC2	> 100 µM (inactive)	> 100 µM
O=C(Nc1ccc(F)cc1)N1CCCCN2[C@@H](CO)[C@H](c3ccc(-c4ccncc4)cc3)[C@@H]2C1	> 100 µM (inactive)	> 100 µM
Nc1ncncc1-c1ccc(Cl)cc1	> 100 µM (inactive)	> 100 µM
CCCCNC(=O)c1onc(CSc2cc(C)cc(C)c2)c1C(=O)O	> 100 µM (inactive)	28 µM
CC(C)Cn1c(=O)c2ccccc2c2ccccc2c1=O	> 100 µM (inactive)	> 100 µM
CSc1c(-c2ccccn2)c(N)nn1C(=O)C1CC1	> 100 µM (inactive)	> 100 µM
COc1cc2c(cc1NC(=O)C(C)Sc1cccc[n+]1[O-])oc1ccccc12 (configuration not stated)	> 100 µM (inactive)	> 100 µM
CCOc1ccc(OCC)c(NC(=O)CSc2nc3c(c(=O)n(C)c(=O)n3C)n2C(C)C)c1	> 100 µM (inactive)	45.5 µM
CN1C(=O)c2cccc3c(S(=O)(=O)NCCc4ccccc4)ccc1c23	> 100 µM (inactive)	> 100 µM
CS(=O)(=O)N(CC(=O)N1CCc2ccccc2C1)c1ccc(Br)cc1	> 100 µM (inactive)	47 µM
CN(Cc1ccccc1)C(=O)c1[nH]cnc1C(=O)NCc1ccccc1	> 100 µM (inactive)	> 100 µM
Cc1ccc(NC(=O)CCCSc2ccccc2)cc1S(=O)(=O)N1CCOCC1	> 100 µM (inactive)	> 100 µM
O=C(CN(c1ccc(F)cc1)S(=O)(=O)c1ccccc1)Nc1ccccc1C(=O)O	> 100 µM (inactive)	> 100 µM
